Test results from patent EP0306167A2, “Stabilization of enzymes by inhibiting proteolytic enzyme contaminants” (TECHNICON INSTRUMENTS CORPORATION(a Delaware corporation), priority 1987, dated 1989).
“Also recorded” adds a separate entry of the source. Like-named read-outs stand apart in the source and are kept apart here.

What was measured:
[1] = test system: phosphoenol pyruvate carboxylase; assay: Stability of phosphoenol pyruvate carboxylase on storage with protease inhibitors (activity assay on TECHNICON RA-1000); type: biochemical; conditions: for Percent Activity Remaining at Time (hrs.): about 20 mg/ml enzyme, Benzamidine 4mM, p-Amino benzamidine 4mM, TPCK 0.5mM, Soya Bean Trypsin Inhibitor 10 mg/ml, Egg white Trypsin Inhibitor 10 mg/ml, BSA 20mg/ml, Aprotinin 0.5 mg/ml, PMSF 1 mM
Experimental: The activity assays to determine the stability of phosphoenol pyruvate carboxylase were done on a TECHNICON RA-1000 clinical analyzer in accordance with established protocols for such analysis. (TECHNICON RA-1000 is a registered trademark of Technicon Instruments Corporation, Tarrytown, N.Y.) In accordance with such protocol, the enzyme solution, R₂, was placed in the sample cup. The other constituents of the assay mixture, R₁, were placed in the reagent boat. 10 µl of R₂ were mixed with 350 µl of R₁. The reaction was done at 37°C and there was a 30 second incubation period before the readings were taken. The reported activity remaining refers to the percentage of the activity determined when fresh solutions were made initially.
The solid enzyme samples were dissolved in 50 mM Hepes, pH 7.0 containing 0.1% benzoic and .01% gentamicin (R₂). The stability study was done in R₂ containing about 20 mg/ml enzyme at room temperature. The ratio of soya bean trypsin inhibitor to phosphoenol pyruvate by weight mg/ml was 10:20. The specific activity of soya bean was 7000 BAEE inhibitor units/mg and that of phosphoenol pyruvate was one unit/mg. The components of the activity assay were in R₁ as NADH, 1.3 x 10⁻⁴M; phosphoenol pyruvate, 2.5 x 10⁻³M; magnesium acetate, 1.06 x 10⁻²M and NaHCO₃, 5 x 10⁻³M; were in 104 mM tris-acetate pH 8.3 (at room temperature).
The samples were stored at room temperature in 50 mM Hepes buffer pH 7.0 containing 0.1% benzoate acid .01% gentamycin. […]

PGM/PAGM enzyme solution = assay: Stability of PGM/PAGM enzyme solution on storage with protease inhibitors (coupled glucose-6-phosphate dehydrogenase rate assay at 340 nm); type: biochemical, Porcine; conditions: for time enzyme activity was protected / stabilizing effect compared between inhibitors (in words): DEAE-Tris acryl purified preparation, 4°C; for time enzyme activity was protected: 50 mM imidazole chloride pH 7.5, p-aminobenzamidine 5mM, benzamidine 5mM; for stabilizing effect compared between inhibitors (in words): pH 7.5, aprotinin .5 mg/ml, leupeptin 0.5 mg/ml, α,α′-bipyridal 2 mM; for effect on PGM/PAGM activity (in words): TPCK 2mM
Experimental: The presence of proteases was detected pursuant to the protocol discussed above. The quantitative assay for protease activity was done with N-α - benzoyl-L-arginine-p-nitroanalide as a substrate by a published procedure (H. Fritz, I. Truntschold and E. Werle; "Methods of Enzymatic Analysis", Ed. H. Bergmeyer, Vol. II, Academic Press, N.4. 1974). The method consist of (1) 0.2M triethanolamine buffer (pH 7.8) with 20 mM CaCl₂, (2) trypsin standard in 1 mM HCl, (3) substrate solution, 2.2 mM in water. The sensitivity can be enhanced four-fold if the concentration of the substrate was increased five times. A clear solution of the substrate was obtained by placing it in a boiling water bath for 5 minutes. The reaction mixture consisted of a .675 ml buffer and 0.325 ml substrate solution. The rate was measured at 405 nm at 37°C on a DU 8 spectrophotometer from Beckman Instruments, Inc. It was possible to detect protease activity equivalent to 1 mg/L trypsin when the standard trypsin was activity of 11000 u/mg with substrate N-α-benzoyl-L-arginine p-nitroanalide. The activity of the PGM/PAGM enzyme solution was determined using the following reaction mixture. NAD⁺, 10⁻³M; glucose-1-phosphate, 2x10⁻⁴M; glucose-1,6-diphosphate, 10⁻⁵M; Mg Acetate, 2 x 10⁻³M; EDTA, 2 x 10⁻⁴M and 1 u/ml glucose-6-phosphate dehydrogenase in 50 mM imidazole acetate, pH 7.5. The reaction was started by adding an aliquot of the enzyme solution and the rate was measured 37°C at 340 nm on a DU-8 spectro- photometer. This method is essentially similar to the literature procedures (W. Ray and E. Peck, The Enzymes, 6, 407, 1972. H. Bergmeyer, "Methods of Enzymatic Analysis" Ed. H. Bergmeyer Vol. I, Academic Press, N.Y. 1974).
A series of experiments were done to determine the stabilizing effect of various inhibitors. In one experiment the enzyme preparation included was 30-70% ammonium sulfate fraction. The effects of soya bean trypsin inhibitor (10 mg/ml), tosyl phenyl chloromethyl ketone (TPCK) (2mM) and α-antitrypsin inhibitor (2 mg/ml) were studied at pH 5.0 and 7.5, in 50 mM imidazole acetate buffer; 0.2 mM EDTA, 10 mM magnesium acetate. The stability was done at two pH values as the formation and dissociation of the inhibitor complex with trypsin is pH dependent. […] PAGM enzyme may also have serine residues at the active site. […] There was some protection afforded by α-antitrypsin inhibitor over longer periods of time at pH 7.5.
In another experiment, the enzyme preparation after ammonium sulfate fractionation was purified through DEAE-Tris acryl column chromatography. […] These trace amounts of proteases were sufficient to cause denaturation of the enzyme. A stability study using various inhibitors of proteases: aprotinin (.5 mg/ml), soybean trypsin inhibitor (5 mg/ml), p-aminobenzamidine (5mM), benzamidine (5mM), α,α′-bipyridal (2 mM) and leupeptin (0.5 mg/ml) was done. The enzyme was stored at 4°C in 50 mM imidazole chloride, 2 mM Mg acetate and .2 mM EDTA, pH 7.5. The activity was assayed at different times. […] The enzymes were stable in the presence of soya bean trypsin inhibitor for one week.

[2] = 20 Hrs, absence of (NH₄)₂SO₄, PMSF 1mM, α-Antitrypsin Inhibitor 5 mg/ml, p-Nitrophenyl-p-Guanidinobenzoate 0.1mg/ml, Ovomucoid 10 mg/ml, D-Tryptophan methyl ester 5mM, 4-Phenyl butylamine 10mM, D-Arginine 10mM, D-phenylalanine 5mM, control 35
[3] = 25 Hrs, absence of (NH₄)₂SO₄, PMSF 1mM, α-Antitrypsin Inhibitor 5 mg/ml, p-Nitrophenyl-p-Guanidinobenzoate 0.1mg/ml, Ovomucoid 10 mg/ml, D-Tryptophan methyl ester 5mM, 4-Phenyl butylamine 10mM, D-Arginine 10mM, D-phenylalanine 5mM, control 26
[4] = 2.5 hrs at room temperature in R2 (50 mM Hepes pH 7.0), control 80
[5] = 5 hrs at room temperature in R2 (50 mM Hepes pH 7.0), control 80
[6] = 23 hrs at room temperature in R2 (50 mM Hepes pH 7.0), control 25
[7] = 20 Hrs, in presence of (NH₄)₂SO₄ (50 mM), inhibitor concentrations as without salt (PMSF 1mM, α-Antitrypsin Inhibitor 5 mg/ml, p-Nitrophenyl-p-Guanidinobenzoate 0.1mg/ml, Ovomucoid 10 mg/ml, D-Tryptophan methyl ester 5mM)
[8] = 25 Hrs, in presence of (NH₄)₂SO₄ (50 mM), inhibitor concentrations as without salt (PMSF 1mM, α-Antitrypsin Inhibitor 5 mg/ml, p-Nitrophenyl-p-Guanidinobenzoate 0.1mg/ml, Ovomucoid 10 mg/ml, D-Tryptophan methyl ester 5mM)
[9] = NaCl up to 200 mM replacing (NH₄)₂SO₄ with 10 mg/ml ovomucoid, phosphoenol pyruvate 5 mM

Percent Activity Remaining at Time (Hrs.) [1, 2] [%] | Percent Activity Remaining at Time (Hrs.) [1, 3] [%] | SMILES | Percent Activity Remaining at Time (hrs.) [1, 4] [%] | Percent Activity Remaining at Time (hrs.) [1, 5] [%] | Percent Activity Remaining at Time (hrs.) [1, 6] [%] | also measured
57 | 51 | NCCCCc1ccccc1 [4-Phenyl butylamine] | – | – | – | –
– | – | N=C(N)c1ccccc1 [Benzamidine] | 83 | 83 | 32 | time enzyme activity was protected (PGM/PAGM enzyme solution): 5 days
32 | 26 | COC(=O)[C@H](N)Cc1c[nH]c2ccccc12 [D-Tryptophan methyl ester] | – | – | – | Percent Activity Remaining at Time (Hrs.) [1, 7]: 68%; Percent Activity Remaining at Time (Hrs.) [1, 8]: 71%
57 | 51 | N[C@H](Cc1ccccc1)C(=O)O [D-phenylalanine] | – | – | – | –
– | – | CC(=O)N[C@@H](CC(C)C)C(=O)N[C@@H](CC(C)C)C(=O)N[C@H](C=O)CCCNC(=N)N [Leupeptin] | – | – | – | stabilizing effect compared between inhibitors (in words) (PGM/PAGM enzyme solution): equally effective
– | – | [Cl-].[Na+] [NaCl] | – | – | – | stabilizing effect on phosphoenol pyruvate carboxylase (in words) [1]: negligible
– | – | Cc1ccc(S(=O)(=O)N[C@@H](Cc2ccccc2)C(=O)CCl)cc1 [TPCK] | 74 | 68 | 28 | effect on PGM/PAGM activity (in words) (PGM/PAGM enzyme solution; pH 5.0, 30-70% ammonium sulfate fraction): destroyed the activity sooner than the control; effect on PGM/PAGM activity (in words) (PGM/PAGM enzyme solution; pH 7.5, 30-70% ammonium sulfate fraction, soya bean trypsin inhibitor 10 mg/ml, α-antitrypsin inhibitor 2 mg/ml): did not show any additional inactivation
– | – | N=C(N)c1ccc(N)cc1 [p-Amino benzamidine] | 75 | 75 | 28 | time enzyme activity was protected (PGM/PAGM enzyme solution): 14 days
42 | 36 | N=C(N)Nc1ccc(C(=O)Oc2ccc([N+](=O)[O-])cc2)cc1 [p-Nitrophenyl-p-Guanidinobenzoate] | – | – | – | Percent Activity Remaining at Time (Hrs.) [1, 7]: 60%; Percent Activity Remaining at Time (Hrs.) [1, 8]: 57%
– | – | C=C(OP(=O)(O)O)C(=O)O [phosphoenol pyruvate] | – | – | – | stabilizing effect on phosphoenol pyruvate carboxylase (in words) [1, 9]: unstable
– | – | c1ccc(-c2ccccn2)nc1 [α,α′-bipyridal] | – | – | – | stabilizing effect compared between inhibitors (in words) (PGM/PAGM enzyme solution): least effective

SMILES | Percent Activity Remaining at Time (Hrs.) [1, 2] [%] | Percent Activity Remaining at Time (Hrs.) [1, 3] [%] | Percent Activity Remaining at Time (hrs.) [1, 4] [%] | Percent Activity Remaining at Time (hrs.) [1, 5] [%] | Percent Activity Remaining at Time (hrs.) [1, 6] [%] | also measured
N=C(N)NCCC[C@@H](N)C(=O)O [D-Arginine] | 30 | 24 | – | – | – | –
O=S(=O)(F)Cc1ccccc1 [PMSF, phenyl methyl sulfonyl fluoride] | 71 | 61 | 87 | 89 | 56 | Percent Activity Remaining at Time (Hrs.) [1, 7]: 90%; Percent Activity Remaining at Time (Hrs.) [1, 8]: 88%; stabilizing effect on phosphoenol pyruvate carboxylase (in words) [1, 9]: especially effective; also recorded: most effective stabilizer; original activity ([1]; PMSF in combination with ammonium sulfate, for 24 hours): 88%; Effectiveness ([1]; protection of PEPC activity, comparison of all effective inhibitors): 24 to 48 h
